Reference: patent US20250388575A1, “HETEROBIFUNCTIONAL COMPOUNDS AND METHODS OF TREATING DISEASE” (Halda Therapeutics OpCo, Inc., priority 2022, published 2025)
pIC50, pKd, pKi: −log10 of the molar value. Like-named read-outs stand apart in the source and are kept apart here.

Experiments:
androgen receptor = androgen receptor (Homo sapiens, UniProt P10275); test: Assay for binding affinity to androgen receptor ([3H]methyltrienolone radioligand, cell cytosol); conditions: binding to the androgen receptor, 1 nM [3H]methyltrienolone, 24 hr at 4° C.
Protocol: Fractions of cell cytosol (106 cell/point) were incubated for 24 hr at 4° C. with 1 nM [^3H]methyltrienolone in the absence or presence of the test compound in a buffer containing 25 mM Hepes-Tris (pH 7.4), 1 mM EDTA, 10 mM Na2MoO4, 2 mM DTT, 5 µM triamcinolone acetonide, and 10% glycerol. Nonspecific binding was determined in the presence of 1 μM testosterone. Following incubation, the samples were filtered rapidly under vacuum through glass fiber filters (GF/B, Packard) presoaked with 0.3% PEI and rinsed several times with ice-cold 50 mM Tris-HCl using a 96-sample cell harvester (Unifilter, Packard). The filters were dried then counted for radioactivity in a scintillation counter (Topcount, Packard) using a scintillation cocktail (Microscint 0, Packard). The results are expressed as a percent inhibition of the control radioligand specific binding. The standard reference compound is testosterone, which is tested in each experiment at several concentrations to obtain a competition curve from which its IC50 is calculated.

[1] = system: T-Rex 293 cell line SC3 cells having increased expression of androgen receptor protein; test: Cellular growth inhibition, T-Rex 293 SC3 cells with increased androgen receptor expression (doxycycline), CellTiter-Glo; format: cell-based; conditions: T-Rex 293 SC3 cells with increased androgen receptor expression (exposed to 10 ng/mL doxycycline), 72 hours, CellTiter-Glo; read-out: GI50
In short: (§1)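 SC3, a T-Rex 293 clone with doxycycline-inducible wild-type androgen receptor, was seeded in phenol red-free DMEM with 10% charcoal-dextran FBS, with or without 10 ng/mL doxycycline. Compound added at 24 h (0.5% DMSO) for 72 h at 37° C. CellTiter-Glo 2.0 luminescence; GI50 from four-parameter fit.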

[2] = system: T-Rex 293 cell line SC3 cells lacking increased expression of androgen receptor protein; test: Cellular growth inhibition, T-Rex 293 SC3 cells lacking increased androgen receptor expression (no doxycycline), CellTiter-Glo; format: cell-based; conditions: T-Rex 293 SC3 cells lacking increased androgen receptor expression (not exposed to doxycycline), 72 hours, CellTiter-Glo; read-out: GI50
In short: as §1

VCaP cells = test: Cellular growth inhibition assay for VCaP cells, CellTiter-Glo; format: cell-based, human; conditions: VCaP cells, 72 hours, CellTiter-Glo, read-out: GI50
In short: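 GI50 values come from four-parameter curve fits of luminescence data normalized to a zero baseline. Compound, in medium with 0.5% DMSO, was added one day after plating and left for 72 h before CellTiter-Glo 2.0 addition.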

progesterone receptor = progesterone receptor (Homo sapiens, UniProt P06401); test: PR Human Progesterone NHR Binding (Agonist Radioligand) Assay, [3H]progesterone, T47D cytosol; conditions: 0.5 nM [3H]progesterone, T47D cytosolic fractions, 1 hour at 4° C., legend words it as Kd
Protocol: Compounds were tested using the PR Human Progesterone NHR Binding (Agonist Radioligand) Assay, Cerep at Eurofins Discovery using a modified version of the protocol from Sarup et al. (Cancer Res 1988; 48:5071-5078). Briefly, cytosolic fractions of T47D cells were incubated with 0.5 nM [^3H]progesterone for 1 hour at 4° C. in the absence or presence of the test compound. Nonspecific binding was determined in the presence of 1 μM promegestone. Reactions were subjected to scintillation counting. Results are expressed as a percent inhibition of the control radioligand specific binding.

BRD4-BD1 = BRD4-BD1 (Homo sapiens (Human), UniProt O60885); test: bromoKdELECT assay for binding affinity to BRD4-BD1; conditions: 11-point 3-fold dilution
Protocol: (§2) Compounds were tested using a bromoKdELECT assay. T7 phage strains displaying bromodomains were grown in parallel in 24-well blocks in an E. coli host derived from the BL21 strain. E. coli were grown to log-phase and infected with T7 phage from a frozen stock (multiplicity of infection=0.4) and incubated with shaking at 32° C. until lysis (90-150 minutes). The lysates were centrifuged (5,000×g) and filtered (0.2 μm) to remove cell debris. Streptavidin-coated magnetic beads were treated with biotinylated small molecule or acetylated peptide ligands for 30 minutes at room temperature to generate affinity resins for bromodomain assays. The liganded beads were blocked with excess biotin and washed with blocking buffer (SeaBlock (Pierce), 1% BSA, 0.05% Tween 20, 1 mM DTT) to remove unbound ligand and to reduce nonspecific phage binding. Binding reactions were assembled by combining bromodomains, liganded affinity beads, and test compounds in 1× binding buffer (17% SeaBlock, 0.33×PBS, 0.04% Tween 20, 0.02% BSA, 0.004% Sodium azide, 7.4 mM DTT). Test compounds were prepared as 1000× stocks in 100% DMSO. Kds were determined using an 11-point 3-fold compound dilution series with one DMSO control point. All compounds for Kd measurements are distributed by acoustic transfer (non-contact dispensing) in 100% DMSO. The compounds were then diluted directly into the assays such that the final concentration of DMSO was 0.09%. All reactions performed in polypropylene 384-well plates. Each was a final volume of 0.02 ml. The assay plates were incubated at room temperature with shaking for 1 hour and the affinity beads were washed with wash buffer (1×PBS, 0.05% Tween 20). The beads were then resuspended in elution buffer (1×PBS, 0.05% Tween 20, 2 μM non-biotinylated affinity ligand) and incubated at room temperature with shaking for 30 minutes. The bromodomain concentration in the eluates was measured by qPCR.

BRD4-BD2 = BRD4-BD2 (Homo sapiens (Human), UniProt O60885); test: bromoKdELECT assay for binding affinity to BRD4-BD2; conditions: 11-point 3-fold dilution
Protocol: as §2

[3] = biological target: progesterone receptor ligand binding domain (LBD) (Homo sapiens (Human), UniProt P06401); test: FP assay for binding affinity to progesterone receptor (PolarScreen Progesterone Receptor Competitor Assay); conditions: GST-tagged PR LBD, Fluormone tracer, fluorescence polarization, 2 hours at room temperature
Protocol: Compounds were tested using the PolarScreen™ Progesterone Receptor Competitor Assay Kit (Life Technologies Cat #A15905 or a15906), as per the manufacturer's instructions. Briefly, GST-tagged PR LBD, Fluormone tracer, and compound were mixed and incubated for 2 hours at room temperature in the dark. Following incubation, the plates were spun at 3000×g for 30 seconds, then sealed with an optical adhesive cover, and fluorescence polarization was measured using appropriate excitation and emission filters with an EnVision Plate Reader (Perkin Elmer). Compound concentration vs. mP value were plotted in Prism (GraphPad). A four-parameter non-linear regression curve fit was applied to dose-response data to determine the half-maximal inhibitory concentration (IC50) for each test compound.

T47D cells = test: Cellular growth inhibition assay for T47D cells, CellTiter-Glo; format: cell-based, human; conditions: 72 hours treatment, CellTiter-Glo 2.0
In short: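 Cells are plated at 3000/well and allowed 24 h before treatment. Test compound in medium containing 0.5% DMSO is then added, with DMSO-only wells as negative control, and plates are incubated 72 h at 37 °C. ATP luminescence (CellTiter-Glo 2.0) is then fitted to four parameters to derive GI50.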

Chain of androgen receptor (P10275 whole entry, looked up): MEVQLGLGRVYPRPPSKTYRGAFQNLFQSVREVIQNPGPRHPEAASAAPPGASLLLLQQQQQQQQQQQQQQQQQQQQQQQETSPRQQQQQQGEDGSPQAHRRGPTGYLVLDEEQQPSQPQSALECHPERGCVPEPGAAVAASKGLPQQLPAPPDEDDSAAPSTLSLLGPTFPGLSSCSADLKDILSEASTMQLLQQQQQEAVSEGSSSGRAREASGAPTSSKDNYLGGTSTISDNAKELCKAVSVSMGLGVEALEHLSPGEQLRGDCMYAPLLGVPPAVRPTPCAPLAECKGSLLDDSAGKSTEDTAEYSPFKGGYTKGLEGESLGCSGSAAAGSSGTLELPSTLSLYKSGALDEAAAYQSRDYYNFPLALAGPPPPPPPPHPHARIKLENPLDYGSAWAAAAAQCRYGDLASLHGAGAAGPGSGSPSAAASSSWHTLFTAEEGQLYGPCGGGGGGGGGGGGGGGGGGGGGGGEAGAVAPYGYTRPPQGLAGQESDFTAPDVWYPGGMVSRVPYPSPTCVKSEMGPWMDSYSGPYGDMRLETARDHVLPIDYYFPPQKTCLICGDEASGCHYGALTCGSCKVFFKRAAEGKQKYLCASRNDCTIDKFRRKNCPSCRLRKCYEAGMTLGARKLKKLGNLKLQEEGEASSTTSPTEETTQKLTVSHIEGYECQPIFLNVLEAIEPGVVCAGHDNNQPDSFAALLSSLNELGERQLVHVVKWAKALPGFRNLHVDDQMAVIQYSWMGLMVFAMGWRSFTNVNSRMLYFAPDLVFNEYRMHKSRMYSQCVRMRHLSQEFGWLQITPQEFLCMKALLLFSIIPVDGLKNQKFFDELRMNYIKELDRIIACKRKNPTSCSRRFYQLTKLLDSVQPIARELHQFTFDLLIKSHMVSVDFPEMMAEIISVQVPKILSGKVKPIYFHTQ
Chain of progesterone receptor (P06401 whole entry, looked up): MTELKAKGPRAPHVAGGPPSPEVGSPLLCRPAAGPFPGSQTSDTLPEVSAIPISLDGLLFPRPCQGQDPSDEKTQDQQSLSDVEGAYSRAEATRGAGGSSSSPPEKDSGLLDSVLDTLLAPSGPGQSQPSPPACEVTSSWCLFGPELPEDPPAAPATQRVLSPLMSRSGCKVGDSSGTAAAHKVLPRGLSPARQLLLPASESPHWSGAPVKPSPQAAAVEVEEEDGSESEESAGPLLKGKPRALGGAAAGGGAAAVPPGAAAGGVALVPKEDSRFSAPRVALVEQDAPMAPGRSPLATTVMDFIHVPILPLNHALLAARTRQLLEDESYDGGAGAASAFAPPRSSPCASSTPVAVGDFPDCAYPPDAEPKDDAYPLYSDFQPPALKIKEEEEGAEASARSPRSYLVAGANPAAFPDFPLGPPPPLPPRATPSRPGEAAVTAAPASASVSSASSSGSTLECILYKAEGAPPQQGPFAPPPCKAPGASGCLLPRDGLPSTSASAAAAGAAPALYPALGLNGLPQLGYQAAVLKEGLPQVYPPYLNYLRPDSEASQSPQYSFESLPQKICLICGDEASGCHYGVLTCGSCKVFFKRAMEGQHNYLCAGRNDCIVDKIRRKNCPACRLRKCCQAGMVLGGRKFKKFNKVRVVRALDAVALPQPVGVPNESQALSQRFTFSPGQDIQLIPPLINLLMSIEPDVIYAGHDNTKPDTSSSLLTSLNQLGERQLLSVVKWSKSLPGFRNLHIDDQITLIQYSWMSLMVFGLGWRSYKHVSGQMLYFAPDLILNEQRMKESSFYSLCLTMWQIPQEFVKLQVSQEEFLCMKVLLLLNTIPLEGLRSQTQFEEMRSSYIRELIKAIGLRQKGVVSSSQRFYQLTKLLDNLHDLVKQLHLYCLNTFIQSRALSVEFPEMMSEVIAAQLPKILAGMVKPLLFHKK
Chain of progesterone receptor ligand binding domain (LBD) (P06401 679-913): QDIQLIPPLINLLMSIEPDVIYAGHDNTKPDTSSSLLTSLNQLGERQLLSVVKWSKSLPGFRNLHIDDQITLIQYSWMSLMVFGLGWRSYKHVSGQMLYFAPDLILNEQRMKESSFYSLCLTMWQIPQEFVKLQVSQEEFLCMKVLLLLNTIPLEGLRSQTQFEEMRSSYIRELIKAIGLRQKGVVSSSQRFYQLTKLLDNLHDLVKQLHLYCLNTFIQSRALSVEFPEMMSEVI

Row | SMILES | pKd (androgen receptor) | GI50 [1] | GI50 [2] | GI50 (VCaP cells; Homo sapiens) | pKi (progesterone receptor) | pKd (BRD4-BD1) | pKd (BRD4-BD2) | pIC50 [3] | GI50 (VCaP cells) | GI50 (T47D cells)
1 | CCS(=O)(=O)Nc1ccc(Oc2cccc(OCCOC3CCN(c4ccc(C(=O)N[C@H]5CC[C@H](Oc6ccc(C#N)c(Cl)c6)CC5)cc4)CC3)c2)c(-c2cn(C)c(=O)c3[nH]ccc23)c1 [I-6, N-[4-(3-chloro-4-cyano-phenoxy)cyclohexyl]-4-[4-[2-[3-[4-(ethylsulfonylamino)-2-(6-methyl-7-oxo-1H-pyrrolo[2,3-c]pyridin-4-yl)phenoxy]phenoxy]ethoxy]-1-piperidyl]benzamide] | 5.60 to 6.30 | < 500 nM | < 500 nM | < 500 nM | – | – | – | – | – | –
2 | CCS(=O)(=O)Nc1ccc(Oc2cccc(OCCOC3CCN(c4ccc(C(=O)N[C@H]5CC[C@H](Oc6ccc(C#N)c(Cl)c6)CC5)cn4)CC3)c2)c(-c2cn(C)c(=O)c3[nH]ccc23)c1 [I-7, N-[4-(3-chloro-4-cyano-phenoxy)cyclohexyl]-6-[4-[2-[3-[4-(ethylsulfonylamino)-2-(6-methyl-7-oxo-1H-pyrrolo[2,3-c]pyridin-4-yl)phenoxy]phenoxy]ethoxy]-1-piperidyl]pyridine-3-carboxamide] | 5.60 to 6.30 | < 500 nM | < 500 nM | < 500 nM | – | – | – | – | – | –
3 | CCS(=O)(=O)Nc1ccc(Oc2cccc(OCCOC3CCN(c4cnc(C(=O)N[C@H]5CC[C@H](Oc6ccc(C#N)c(Cl)c6)CC5)cn4)CC3)c2)c(-c2cn(C)c(=O)c3[nH]ccc23)c1 [I-8, N-[4-(3-chloro-4-cyano-phenoxy)cyclohexyl]-5-[4-[2-[3-[4-(ethylsulfonylamino)-2-(6-methyl-7-oxo-1H-pyrrolo[2,3-c]pyridin-4-yl)phenoxy]phenoxy]ethoxy]-1-piperidyl]pyrazine-2-carboxamide] | 5.60 to 6.30 | < 500 nM | < 500 nM | < 500 nM | – | – | – | – | – | –
4 | CCS(=O)(=O)Nc1ccc(Oc2cccc(OCCOC3CCN(c4ccc(C(=O)N[C@H]5CC[C@H](Oc6ccc(C#N)c(Cl)c6)CC5)nc4)CC3)c2)c(-c2cn(C)c(=O)c3[nH]ccc23)c1 [I-9, N-[4-(3-chloro-4-cyano-phenoxy)cyclohexyl]-5-[4-[2-[3-[4-(ethylsulfonylamino)-2-(6-methyl-7-oxo-1H-pyrrolo[2,3-c]pyridin-4-yl)phenoxy]phenoxy]ethoxy]-1-piperidyl]pyridine-2-carboxamide] | 5.60 to 6.30 | < 500 nM | < 500 nM | < 500 nM | – | – | – | – | – | –
5 | CCS(=O)(=O)Nc1ccc(Oc2cccc(OCCOC3CCN(c4cnc(C(=O)N[C@H]5CC[C@H](Oc6ccc(C#N)c(Cl)c6)CC5)nc4)CC3)c2)c(-c2cn(C)c(=O)c3[nH]ccc23)c1 [I-10, N-[4-(3-chloro-4-cyano-phenoxy)cyclohexyl]-5-[4-[2-[3-[4-(ethylsulfonylamino)-2-(6-methyl-7-oxo-1H-pyrrolo[2,3-c]pyridin-4-yl)phenoxy]phenoxy]ethoxy]-1-piperidyl]pyrimidine-2-carboxamide] | 6.30 to 7.30 | < 500 nM | > 3000 nM | < 500 nM | – | – | – | – | – | –
6 | CCS(=O)(=O)Cc1ccc(Oc2cccc(OCCOC3CCN(c4cnc(C(=O)N[C@H]5CC[C@H](Oc6ccc(C#N)c(Cl)c6)CC5)cn4)CC3)c2F)c(-c2cn(C)c(=O)c3[nH]ccc23)c1 [I-28] | 6.30 to 7.30 | < 500 nM | < 500 nM | < 500 nM | 5.60 to 6.30 | – | – | – | – | –
7 | Cn1cc(-c2cc(S(=O)(=O)CCCCOC3CCN(c4ccc(C(=O)NC5CCC(Oc6ccc(C#N)c(Cl)c6)CC5)nn4)CC3)ccc2Oc2ccc(F)cc2F)c2cc[nH]c2c1=O (centres unmarked) [I-92, N-[4-(3-chloro-4-cyano-phenoxy)cyclohexyl]-6-[4-[4-[4-(2,4-difluorophenoxy)-3-(6-methyl-7-oxo-1H-pyrrolo[2,3-c]pyridin-4-yl)phenyl]sulfonylbutoxy]-1-piperidyl]pyridazine-3-carboxamide] | – | < 500 nM | > 3000 nM | > 3000 nM | – | < 5.60 | < 5.60 | 6.30 to 7.30 | – | –
8 | Cn1cc(-c2cc(C(C)(C)O)ccc2Oc2ccc(C3CN(c4ccc(C(=O)N[C@H]5CC[C@H](Oc6ccc(C#N)c(Cl)c6)CC5)nn4)C3)cc2)c2cc[nH]c2c1=O [I-104] | > 7.30 | < 500 nM | 500 to 1500 nM | – | – | – | – | – | < 500 nM | < 500 nM
9 | Cn1cc(-c2cc(C(C)(C)O)ccc2Oc2ccc(CCC3CCN(c4cnc(C(=O)N[C@H]5CC[C@H](Oc6ccc(C#N)c(Cl)c6)CC5)cn4)CC3)cc2)c2cc[nH]c2c1=O [I-119] | 5.60 to 6.30 | < 500 nM | < 500 nM | – | – | – | – | – | < 500 nM | < 500 nM
